Where no end group is shown, it is not given here.
Each compound was assayed on surgical incisions on the backs of Swiss-Webster mice (assay: Scar formation after surgical incisions, synthetic peptide-metal complexes injected along the incision line). Conditions: 10 mice each; 1 mg/ml in 0.85% saline, 0.02 ml injected at four sites on each side of incision, immediately after surgery and 24 hours later; rated 0 to 4 (heavy scarring); untreated control 3.6.
Type: in vivo

Compared with Gly-Cys-Gly-Copper(II), Gly-Gly-Gly-Copper(II) is lower in “Scar Formation score (5 days)” value: 1.4 ± 0.3 for the first, 0.5 ± 0.3 for the second.

“Gly-His-Lys-His-Copper(II) (GHKH; also: copper(II) complex)” and Gly-His-Lys-Tin(II) are the same in “Scar Formation score (5 days)” value: 0.4 ± 0.2 for the first, 0.4 ± 0.1 for the second.

First: Cysteine sulfinic acid-Copper(II) [reference compound]
Second: Gly-Gly-His-Copper(II)
The “Scar Formation score (5 days)” value of the first is higher: 2.9 ± 0.5 for the first, 0.3 ± 0.2 for the second.

Ala-Gly-His-Tin(II) and Ala-Gly-His-Copper(II) are the same in “Scar Formation score (5 days)” value: 0.3 ± 0.1 for the first, 0.3 ± 0.1 for the second.

His-Gly-Gly-Copper(II) and Gly-His-Lys-Copper(II) are within error of each other in “Scar Formation score (5 days)” value: 0.5 ± 0.2 for the first, 0.2 ± 0.1 for the second.

Phe-Phe-Copper(II) and His-Gly-Gly-Tin(II) are within error of each other in “Scar Formation score (5 days)” value: 0.5 ± 0.3 for the first, 0.4 ± 0.2 for the second.

With “Gly-His-Lys-His-Tin(II) (GHKH; also: tin(II) complex)” the “Scar Formation score (5 days)” value was 0.4 ± 0.2.

Same assay, conditions: mice, injection along incision line

With `N[C@@H](CS(=O)(=O)O)C(=O)O.[Cu+2]` [Cysteic acid-Copper(II), reference compound] the “post-surgical scar formation compared with control wounds (in words)” value was “much less active”.
With “Cysteine sulfinic acid-Copper(II) [reference compound]” the “post-surgical scar formation compared with control wounds (in words)” value was “much less active”.
With `N[C@@H](CCS(=O)(=O)O)C(=O)O.[Cu+2]` [Homocysteic acid-Copper(II), reference compound] the “post-surgical scar formation compared with control wounds (in words)” value was “much less active”.

Source: patent publication US8183204B2, “Methods and compositions for increasing skin remodeling” (Summit Associates International Inc., priority 2000, dated 2012)
